Laboratory results from ChEMBL document CHEMBL5143740, “Discovery of Novel Phosphoinositide-3-Kinase α Inhibitors with High Selectivity, Excellent Bioavailability, and Long-Acting Efficacy for Gastric Cancer” (J Med Chem, 2022).

Columns and labels:
[1] = molecular target: Phosphatidylinositol 4,5-bisphosphate 3-kinase catalytic subunit alpha isoform (Homo sapiens, UniProt P42336); assay: Inhibition of PI3Kalpha (unknown origin) using PIP2 as substrate in presence of ATP measured after 1 hr by ADP-Glo assay
[2] = Half life in Sprague-Dawley rat at 1 mg/kg, iv measured after 24 hrs; format: ADME, organism-based; conditions: in vivo
MGC-803 [3] = assay: Induction of apoptosis in human MGC-803 cells assessed as early apoptotic cells at 8 uM incubated for 36 hrs by annexin V-FITC based flow cytometry analysis (reference value: 2.49 %); format: functional
[4] = AUC (0 to t) in Sprague-Dawley rat at 1 mg/kg, iv measured after 24 hrs; format: ADME, organism-based; design: time 24 hrs, dose 1 mg/kg, route iv; conditions: in vivo
MGC-803 [5] = assay: Induction of apoptosis in human MGC-803 cells assessed as necrotic cells at 2 uM incubated for 36 hrs by annexin V-FITC based flow cytometry analysis (reference value: […]); format: functional
K562 = assay: Antiproliferative activity against human K562 cells assessed as inhibition of cell growth incubated for 72 hrs by CCK8 assay; format: functional, cell-based; conditions: K562, 72 h
[6] = molecular target: T1, Phosphatidylinositol 4,5-bisphosphate 3-kinase catalytic subunit delta isoform (Homo sapiens, UniProt O00329); assay: Inhibition of PI3Kdelta (unknown origin) in presence of [33P]-ATP incubated for 2 hrs by hotspot kinase assay
T1 sequence (O00329 whole entry): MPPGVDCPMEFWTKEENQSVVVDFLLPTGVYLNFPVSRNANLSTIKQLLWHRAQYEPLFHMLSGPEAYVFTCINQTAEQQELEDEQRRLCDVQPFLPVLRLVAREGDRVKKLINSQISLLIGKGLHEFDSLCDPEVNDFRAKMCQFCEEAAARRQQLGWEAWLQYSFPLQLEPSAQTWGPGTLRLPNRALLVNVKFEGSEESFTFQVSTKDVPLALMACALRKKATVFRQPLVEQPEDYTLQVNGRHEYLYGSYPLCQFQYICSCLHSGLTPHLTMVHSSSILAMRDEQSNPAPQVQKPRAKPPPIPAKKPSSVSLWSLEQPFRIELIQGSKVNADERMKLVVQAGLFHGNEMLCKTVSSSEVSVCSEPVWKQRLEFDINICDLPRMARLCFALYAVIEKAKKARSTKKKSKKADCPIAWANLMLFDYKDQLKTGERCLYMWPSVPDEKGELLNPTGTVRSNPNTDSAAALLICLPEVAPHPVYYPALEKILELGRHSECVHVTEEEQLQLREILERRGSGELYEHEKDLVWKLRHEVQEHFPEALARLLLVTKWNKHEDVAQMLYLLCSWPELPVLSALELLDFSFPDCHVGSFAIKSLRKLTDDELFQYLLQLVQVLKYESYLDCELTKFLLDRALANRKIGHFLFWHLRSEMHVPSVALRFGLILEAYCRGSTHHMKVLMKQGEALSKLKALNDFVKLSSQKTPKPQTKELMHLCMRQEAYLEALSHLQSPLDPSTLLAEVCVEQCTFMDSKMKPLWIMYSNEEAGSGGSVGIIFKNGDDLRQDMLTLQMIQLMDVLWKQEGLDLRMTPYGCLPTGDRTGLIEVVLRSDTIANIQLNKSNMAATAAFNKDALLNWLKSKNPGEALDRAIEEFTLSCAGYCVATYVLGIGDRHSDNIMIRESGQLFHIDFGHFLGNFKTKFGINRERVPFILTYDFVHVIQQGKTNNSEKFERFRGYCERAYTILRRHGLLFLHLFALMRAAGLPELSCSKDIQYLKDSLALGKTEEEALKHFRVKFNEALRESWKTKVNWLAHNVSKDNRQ

Homo sapiens = species: Homo sapiens; assay: Selectivity index, ratio of IC50 for inhibition of PI3Kgamma (unknown origin) to IC50 for inhibition of PI3Kalpha (unknown origin)
SK-OV-3 = assay: Antiproliferative activity against human SK-OV-3 cells assessed as inhibition of cell growth incubated for 72 hrs by CCK8 assay; format: functional, cell-based; conditions: SK-OV-3, 72 h
HepG2 = assay: Antiproliferative activity against human HepG2 cells assessed as inhibition of cell growth incubated for 72 hrs by CCK8 assay; format: functional, cell-based; conditions: HepG2, 72 h
[7] = molecular target: Phosphatidylinositol 4,5-bisphosphate 3-kinase catalytic subunit gamma isoform (Homo sapiens, UniProt P48736)
MGC-803 [8] = assay: Induction of apoptosis in human MGC-803 cells assessed as early apoptotic cells at 4 uM incubated for 36 hrs by annexin V-FITC based flow cytometry analysis (reference value: 2.49 %); format: functional
[9] = Cmax in Sprague-Dawley rat at 10 mg/kg, po measured after 24 hrs; format: ADME, organism-based; design: time 24 hrs, dose 10 mg/kg, route po; conditions: in vivo
[10] = AUC (0 to infinitive) in Sprague-Dawley rat at 1 mg/kg, iv measured after 24 hrs; format: ADME, organism-based; design: time 24 hrs, dose 1 mg/kg, route iv; conditions: in vivo

Phosphatidylinositol 4,5-bisphosphate 3-kinase catalytic subunit gamma isoform, sequence (P48736 whole entry, canonical isoform): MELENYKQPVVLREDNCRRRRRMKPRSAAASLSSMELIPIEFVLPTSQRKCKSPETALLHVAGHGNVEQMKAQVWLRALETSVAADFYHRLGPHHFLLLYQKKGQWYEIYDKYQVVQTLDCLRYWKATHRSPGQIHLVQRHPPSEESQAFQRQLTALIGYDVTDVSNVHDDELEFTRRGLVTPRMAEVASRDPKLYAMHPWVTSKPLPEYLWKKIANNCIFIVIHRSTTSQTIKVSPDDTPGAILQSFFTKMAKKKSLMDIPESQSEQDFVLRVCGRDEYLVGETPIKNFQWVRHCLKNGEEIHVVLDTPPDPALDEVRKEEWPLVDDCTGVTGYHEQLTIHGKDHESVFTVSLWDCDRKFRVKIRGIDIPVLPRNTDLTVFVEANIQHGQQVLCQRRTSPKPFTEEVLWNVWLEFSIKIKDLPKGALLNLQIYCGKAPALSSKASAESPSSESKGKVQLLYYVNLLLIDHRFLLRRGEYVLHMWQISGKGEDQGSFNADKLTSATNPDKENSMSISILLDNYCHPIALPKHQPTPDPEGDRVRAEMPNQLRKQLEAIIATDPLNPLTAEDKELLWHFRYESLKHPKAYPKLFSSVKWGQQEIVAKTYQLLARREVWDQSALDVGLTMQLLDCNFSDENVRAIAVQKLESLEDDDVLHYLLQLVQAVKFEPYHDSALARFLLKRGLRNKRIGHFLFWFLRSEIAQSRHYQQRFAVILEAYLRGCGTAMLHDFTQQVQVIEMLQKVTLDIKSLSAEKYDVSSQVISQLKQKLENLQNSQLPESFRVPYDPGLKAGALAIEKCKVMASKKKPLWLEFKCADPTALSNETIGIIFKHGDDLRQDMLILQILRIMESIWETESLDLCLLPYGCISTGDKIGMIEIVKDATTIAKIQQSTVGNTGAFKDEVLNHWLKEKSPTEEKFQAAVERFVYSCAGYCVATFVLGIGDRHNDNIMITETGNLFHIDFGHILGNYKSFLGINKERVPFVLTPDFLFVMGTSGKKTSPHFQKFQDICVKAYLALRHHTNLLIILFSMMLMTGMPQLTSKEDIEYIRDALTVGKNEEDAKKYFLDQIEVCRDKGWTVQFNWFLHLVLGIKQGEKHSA
Phosphatidylinositol 4,5-bisphosphate 3-kinase catalytic subunit alpha isoform, sequence (P42336 whole entry, canonical isoform): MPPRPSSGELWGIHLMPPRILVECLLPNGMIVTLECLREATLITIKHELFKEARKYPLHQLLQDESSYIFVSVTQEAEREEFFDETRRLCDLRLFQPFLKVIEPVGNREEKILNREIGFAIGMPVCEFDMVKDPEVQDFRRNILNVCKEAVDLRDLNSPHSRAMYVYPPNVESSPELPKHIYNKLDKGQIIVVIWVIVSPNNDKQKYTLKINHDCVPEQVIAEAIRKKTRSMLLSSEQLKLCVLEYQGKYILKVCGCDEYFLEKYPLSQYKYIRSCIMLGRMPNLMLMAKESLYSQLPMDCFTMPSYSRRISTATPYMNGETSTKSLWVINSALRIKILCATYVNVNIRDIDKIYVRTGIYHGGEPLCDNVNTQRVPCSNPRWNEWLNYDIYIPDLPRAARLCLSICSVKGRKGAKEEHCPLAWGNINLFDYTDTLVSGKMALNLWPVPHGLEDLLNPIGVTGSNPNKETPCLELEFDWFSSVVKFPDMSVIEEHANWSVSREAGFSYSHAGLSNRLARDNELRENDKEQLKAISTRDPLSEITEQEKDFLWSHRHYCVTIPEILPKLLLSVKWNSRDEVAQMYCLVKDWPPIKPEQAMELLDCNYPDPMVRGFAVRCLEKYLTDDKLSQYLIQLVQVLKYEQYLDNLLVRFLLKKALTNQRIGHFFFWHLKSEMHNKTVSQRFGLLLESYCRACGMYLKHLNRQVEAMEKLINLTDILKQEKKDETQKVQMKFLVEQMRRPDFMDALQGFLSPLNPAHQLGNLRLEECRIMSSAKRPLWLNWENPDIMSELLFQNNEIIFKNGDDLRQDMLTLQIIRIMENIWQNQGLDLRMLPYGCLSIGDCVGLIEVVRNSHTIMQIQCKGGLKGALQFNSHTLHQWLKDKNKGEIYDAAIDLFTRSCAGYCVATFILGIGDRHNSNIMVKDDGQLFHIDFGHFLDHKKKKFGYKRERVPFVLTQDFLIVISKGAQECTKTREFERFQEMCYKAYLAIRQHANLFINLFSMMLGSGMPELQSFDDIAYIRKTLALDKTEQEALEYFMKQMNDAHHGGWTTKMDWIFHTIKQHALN

Q: For `Nc1nc2cc(-c3nc(N4CCOCC4)nc(N4CCOCC4)n3)ccc2o1`, which IC50 [1] is on record?
A: 4.4 nM

Q: And the half-life [2]?
A: 377 min

Q: What about the Activity (MGC-803 [3]) of the same molecule?
A: 57.88%

Q: What about the AUC(0-t) at 24 h [4] of the same molecule?
A: 2240 ng·h/mL

Q: And the Activity (MGC-803 [5])?
A: 0.95%

Q: What about the IC50 (K562) of the same molecule?
A: 430 nM

Q: And the IC50 [6]?
A: 153 nM

Q: What about the Ratio IC50 (Homo sapiens) of the same molecule?
A: 29

Q: What about the IC50 (SK-OV-3) of the same molecule?
A: 430 nM

Q: And the IC50 (HepG2)?
A: 430 nM

Q: What about the IC50 [7] of the same molecule?
A: 128 nM

Q: And the Activity (MGC-803 [8])?
A: 31.31%

Q: What about the Cmax [9] of the same molecule?
A: 2260 ng/mL

Q: And the AUC(0-inf) [10]?
A: 2920 ng·h/mL
